This is an account of results in BindingDB's records for doi:10.1074/jbc.M606784200 (Chul, 2007).

Assay [1] addresses T1, Aldo-keto reductase family 1 member C3 (Homo sapiens, UniProt P42330).
T1 sequence (P42330 whole entry): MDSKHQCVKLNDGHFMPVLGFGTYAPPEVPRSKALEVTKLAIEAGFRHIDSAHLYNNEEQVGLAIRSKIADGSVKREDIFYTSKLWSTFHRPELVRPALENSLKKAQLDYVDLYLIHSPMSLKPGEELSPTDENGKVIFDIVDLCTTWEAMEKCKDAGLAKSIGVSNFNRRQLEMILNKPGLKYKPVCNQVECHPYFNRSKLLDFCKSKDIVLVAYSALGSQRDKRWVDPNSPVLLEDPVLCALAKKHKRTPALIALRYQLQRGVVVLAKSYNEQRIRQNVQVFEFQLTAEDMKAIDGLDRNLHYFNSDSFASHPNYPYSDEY
Kind of assay: Scintillation Proximity Assay (SPA). The following applies: pH 6; 22 °C. The procedure: SPA beads conjugated to anti-mouse IgG were incubated overnight in buffer with anti-testosterone monoclonal antibody. The enzymatic reaction was monitored by its conversion of 4-androstene-3, 17-dione to testosterone. The amount of [14C] testosterone produced in each well was determined by scintillation counting on a Perkin Elmer TopCount instrument and collected as DPMs. The data was then analyzed and percent inhibition and/or IC50 values, based on 10 point serially diluted curves in duplicate or triplicate, were calculated using Microsoft Excel and XLFit programs.
Background: SPA uses beads or plates that emit light when radiolabelled molecules are held near them.

For assay [2], the target named is T1, Aldo-keto reductase family 1 member C3. As to the kind of experiment: Inhibition Study on the Interconversion of Testosterone to Androstenedione (4-dione). The following applies: pH 7.5; 37 °C. As to the method:
A radioactive assay was used for the enzyme kinetics in the presence of EM1404 at different concentrations for its Ki determination. Reactions were initiated by the addition of enzyme to the reaction mixture containing substrate and test compounds. After the reaction, the steroids were extracted, separated by TLC migration, and analyzed by phosphorimaging. The Km for testosterone oxidation in the absence of EM-1404, and four apparent Km values in the presence of 1, 3, 10, and 25 nM EM-1404, were determined. Ki value was further determined by a plot of Km vs. the inhibitor concentration.

The IC50 is the concentration that inhibits the measured activity by half. Read a high IC50 as weaker potency in that assay. `COCCOc1cc2c(cc1C(=O)ON)C1CC[C@@]3(C)C(CC[C@@]34CCC(C)(C)C(=O)O4)C1CC2` (stereo partly drawn) [(2R,15'S)-5'-(2-methoxyethoxy)-5,5,15'-trimethyl-6-oxospiro[oxane-2,14'-tetracyclo[8.7.0.0^{2,7}.0^{11,15}]heptadecane]-2',4',6'-triene-4'-carboxylate] gave an IC50 in assay [1] of 9.5 nM. This lies in the single-digit nanomolar range.
Broadly, the Ki is the equilibrium dissociation constant of an inhibitor or competing ligand from its target. Low values mean a stronger hold on the target, high ones a looser hold on the target. As to `CC1(C)CC[C@@]2(CCC3C4CCc5cc(C(N)=O)ccc5C4CC[C@@]32C)OC1=O` (stereo partly drawn) [(2R,15'S)-5,5,15'-trimethyl-6-oxospiro[oxane-2,14'-tetracyclo[8.7.0.0^{2,7}.0^{11,15}]heptadecane]-2',4',6'-triene-5'-carboxamide], in assay [1], the IC50 is 3.2 nM. The same molecule registered a Ki in assay [2] of 6.9 nM.
